From patent publication US10144714B2, “Methods of making protein deacetylase inhibitors” (Acetylon Pharmaceuticals, Inc., priority 2015, dated 2018) come the findings set out here.

The structures appear in SMILES notation.

Data set [1] can be described thus: Thermal gravimetric analysis (TGA). The class given is physicochemical. To be noted: from 35 to 150° C.; Form I. The procedure: Thermal Gravimetric Analysis (TGA) data were collected using a TA Instruments TGA Q500. Approximately, 5-10 mg samples were placed in an open, pre-tared aluminum sample pan and scanned from 25 to 300° C. at a rate of 10° C./min using a nitrogen purge at 60 mL/min.

Data set [2] in a line: Dynamic vapor sorption (DVS) analysis. The format is physicochemical. The following applies: relative humidity between 0-95 percent, Form I/Pattern A. The procedure: Dynamic Vapor Soprtion (DVS) analysis was performed using an Aquadyne DVS-2 gravimetric water sorption analyzer. The relative humidity was adjusted between 2-95% and the weight of the sample was continuously monitored and recorded with respect to the relative humidity and time.

`O=C(CCCCCCNC(=O)c1cnc(N(c2ccccc2)c2ccccc2Cl)nc1)NO` [Compound (I), 2-((2-chlorophenyl)(phenyl)amino)-N-(7-(hydroxyamino)-7-oxoheptyl)pyrimidine-5-carboxamide]: the weight loss result in data set [1] is on record as “less than 0.1%”. In data set [2] (after DVS), the “change in the crystalline form” value is recorded as “no change in the crystalline form”. The moisture uptake result in data set [2] was “less than 0.2%”.
